Measured values: PubChem BioAssay AID248 (DTP/NCI, 2004)
Where “and” joins values, the source holds several entries; their conditions need not be identical. Equal entries are not always repeated. Inconclusive results and toxic doses are left out. No stated cut-off is given here; in the data, active means T/C of 150% or more; inactive means T/C below 125%. Peptide text beside a SMILES is read from it. * marks the point of attachment. Cbz = O=C(OCc1ccccc1)*; OBn = c1ccc(CO*)cc1; Bn = c1ccc(C*)cc1

Test system: L1210 leukemia ip in BDF1 mice, survival T/C
Assay: NCI In Vivo Anticancer Drug Screen. Data for tumor model L1210 Leukemia (intraperitoneal) in B6D2F1 (BDF1) mice
Conditions: endpoint: mean survival time, higher = longer survival
Method in brief: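 In this screen, tumor-bearing mice given compound are compared to those given vehicle, and their survival values are reported as a treated-to-control quotient.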

[1] = dose: 100.0 mg/kg/injection, schedule: Q04DX003 (ip), vehicle: saline with Tween-80
[2] = dose: 200.0 mg/kg/injection, schedule: Q04DX003 (ip), vehicle: saline with Tween-80
[3] = dose: 400.0 mg/kg/injection, schedule: Q01DX009 (ip), vehicle: saline with Tween-80
[4] = dose: 400.0 mg/kg/injection, schedule: Q04DX003 (ip), vehicle: saline with Tween-80
[5] = dose: 100.0 mg/kg/injection, schedule: Q01DX009 (ip), vehicle: saline
[6] = dose: 200.0 mg/kg/injection, schedule: Q01DX009 (ip), vehicle: saline
[7] = dose: 100.0 mg/kg/injection, schedule: Q01DX009 (ip), vehicle: saline with Tween-80
[8] = dose: 200.0 mg/kg/injection, schedule: Q01DX009 (ip), vehicle: saline with Tween-80
[9] = dose: 100.0 mg/kg/injection, schedule: Q04DX003 (ip), vehicle: saline
[10] = dose: 200.0 mg/kg/injection, schedule: Q04DX003 (ip), vehicle: saline
[11] = dose: 400.0 mg/kg/injection, schedule: Q04DX003 (ip), vehicle: saline
[12] = dose: 100.0 mg/kg/injection, schedule: Q01DX009 (ip), vehicle: Klucel (hydroxypropylcellulose) (HPC)
[13] = dose: 200.0 mg/kg/injection, schedule: Q01DX009 (ip), vehicle: Klucel (hydroxypropylcellulose) (HPC)
[14] = dose: 25.0 mg/kg/injection, schedule: Q01DX009 (ip), vehicle: saline with Tween-80
[15] = dose: 50.0 mg/kg/injection, schedule: Q01DX009 (ip), vehicle: saline with Tween-80

Measured: T/C

O=C(Nc1cccc(C(F)(F)F)c1)c1ccc(C(=O)Nc2cccc(C(F)(F)F)c2)cc1
inactive: [1] 95 % of control | [2] 90 % of control | [3] 96 % of control | [4] 95 % of control

CC1(CO)CCCC2(C)C3=C(CCCC3)CCC12 (stereo unspecified)
inactive: dose: 5.0 mg/kg/injection, schedule: Q01DX001 (ip), vehicle: other 102 % of control | dose: 10.0 mg/kg/injection, schedule: Q01DX001 (ip), vehicle: other 96 % of control | dose: 20.0 mg/kg/injection, schedule: Q01DX001 (ip), vehicle: other 100 % of control | dose: 40.0 mg/kg/injection, schedule: Q01DX001 (ip), vehicle: other 98 % of control | dose: 80.0 mg/kg/injection, schedule: Q01DX001 (ip), vehicle: other 98 % of control

CCOP(=O)(OCC)C([O][Sb]([O]CC(C)Cl)[O]CC(C)Cl)c1ccc(OC)cc1 (stereo unspecified)
inactive: dose: 25.0 mg/kg/injection, schedule: Q04DX003 (ip), vehicle: alcohol 101 % of control | dose: 50.0 mg/kg/injection, schedule: Q04DX003 (ip), vehicle: alcohol 97 % of control | dose: 100.0 mg/kg/injection, schedule: Q04DX003 (ip), vehicle: alcohol 103 % of control and 113 % of control

OCCOCCOCCN1CCN(C(c2ccccc2)c2ccc(Cl)cc2)CC1 (stereo unspecified)
inactive: dose: 12.5 mg/kg/injection, schedule: Q01DX009 (ip), vehicle: saline 95 % of control | dose: 25.0 mg/kg/injection, schedule: Q01DX009 (ip), vehicle: saline 100 % of control | dose: 50.0 mg/kg/injection, schedule: Q01DX009 (ip), vehicle: saline 101 % of control | [5] 95 % of control | [6] 91 % of control

O=C(C[n+]1cccc(C(=O)NCc2ccccc2)c1)NCc1ccccc1
inactive: dose: 25.0 mg/kg/injection, schedule: Q01DX009 (ip), vehicle: saline sonified 100 % of control | dose: 50.0 mg/kg/injection, schedule: Q01DX009 (ip), vehicle: saline sonified 97 % of control | dose: 110.0 mg/kg/injection, schedule: Q01DX009 (ip), vehicle: saline sonified 95 % of control

O=C(O)Cc1csc2ccccc12
inactive: dose: 100.0 mg/kg/injection, schedule: Q01DX001 (ip), vehicle: other 100 % of control | dose: 200.0 mg/kg/injection, schedule: Q01DX001 (ip), vehicle: other 97 % of control | dose: 400.0 mg/kg/injection, schedule: Q01DX001 (ip), vehicle: other 103 % of control

CC(C)C(NC(=O)C(CSCc1ccccc1)NC(=O)OCc1ccccc1)C(=O)OCc1ccccc1 (stereo unspecified) (Cbz-Cys(Bn)-Val-OBn; configuration not given here)
inactive: dose: 100.0 mg/kg/injection, schedule: Q04DX003 (ip), vehicle: Klucel (hydroxypropylcellulose) (HPC) 98 % of control | dose: 200.0 mg/kg/injection, schedule: Q04DX003 (ip), vehicle: Klucel (hydroxypropylcellulose) (HPC) 93 % of control | dose: 400.0 mg/kg/injection, schedule: Q04DX003 (ip), vehicle: Klucel (hydroxypropylcellulose) (HPC) 96 % of control

CSc1ccc(Sc2cccc3c2C(=O)c2c(cccc2Sc2ccc(SC)cc2)C3)cc1
inactive: [7] 90 % of control | [8] 92 % of control | [3] 103 % of control

O=[N+]([O-])C(CO)(CO)CO
inactive: [9] 104 % of control | [10] 101 % of control | [11] 101 % of control

CCC(CCl)NC1CCCCC1 (stereo unspecified)
inactive: dose: 75.0 mg/kg/injection, schedule: Q01DX001 (ip), vehicle: saline 106 % of control | dose: 150.0 mg/kg/injection, schedule: Q01DX001 (ip), vehicle: saline 106 % of control

CCCCCCCCCCCCNC(C)=O
inactive: dose: 100.0 mg/kg/injection, schedule: Q01DX005 (ip), vehicle: Klucel (hydroxypropylcellulose) (HPC) 97 % of control | [12] 105 % of control | dose: 100.0 mg/kg/injection, schedule: Q04DX002 (ip), vehicle: Klucel (hydroxypropylcellulose) (HPC) 98 % of control | [1] 97 % of control | dose: 200.0 mg/kg/injection, schedule: Q01DX005 (ip), vehicle: Klucel (hydroxypropylcellulose) (HPC) 94 % of control | [13] 99 % of control | dose: 200.0 mg/kg/injection, schedule: Q04DX002 (ip), vehicle: Klucel (hydroxypropylcellulose) (HPC) 91 % of control | [2] 98 % of control | dose: 400.0 mg/kg/injection, schedule: Q01DX005 (ip), vehicle: Klucel (hydroxypropylcellulose) (HPC) 102 % of control | dose: 400.0 mg/kg/injection, schedule: Q04DX002 (ip), vehicle: Klucel (hydroxypropylcellulose) (HPC) 106 % of control | [4] 90 % of control

O=C1c2ccccc2C(=O)c2cc(S(=O)(=O)O)ccc21
inactive: [1] 95 % of control | [2] 95 % of control | [4] 95 % of control

CN(C)c1ccc(/C=N/NC(=O)c2ccc(O)cc2)c(Cl)c1
inactive: [14] 97 % of control and 103 % of control | dose: 50.0 mg/kg/injection, schedule: Q01DX001 (ip), vehicle: saline with Tween-80 86 % of control | [15] 102 % of control and 113 % of control | dose: 100.0 mg/kg/injection, schedule: Q01DX001 (ip), vehicle: saline with Tween-80 88 % of control | dose: 100.0 mg/kg/injection, schedule: Q04DX002 (ip), vehicle: saline with Tween-80 97 % of control and 98 % of control | [1] 104 % of control | dose: 200.0 mg/kg/injection, schedule: Q01DX001 (ip), vehicle: saline with Tween-80 94 % of control | dose: 200.0 mg/kg/injection, schedule: Q04DX002 (ip), vehicle: saline with Tween-80 97 % of control and 91 % of control | [2] 87 % of control | [3] 92 % of control | dose: 400.0 mg/kg/injection, schedule: Q04DX002 (ip), vehicle: saline with Tween-80 94 % of control and 90 % of control | [4] 95 % of control

CC1=CC(=N\S(=O)(=O)c2ccccc2)/c2ccccc2/C1=N/S(=O)(=O)c1ccccc1
inactive: dose: 25.0 mg/kg/injection, schedule: Q01DX001 (ip), vehicle: saline sonified 92 % of control | dose: 50.0 mg/kg/injection, schedule: Q01DX001 (ip), vehicle: saline sonified 95 % of control | dose: 100.0 mg/kg/injection, schedule: Q01DX001 (ip), vehicle: saline sonified 95 % of control

CS(=O)(=O)C(=C(N1CCCCC1)N1CCCCC1)S(=O)(=O)Cc1ccccc1
inactive: dose: 100.0 mg/kg/injection, schedule: Q01DX001 (ip), vehicle: saline 100 % of control | [5] 88 % of control | dose: 200.0 mg/kg/injection, schedule: Q01DX001 (ip), vehicle: saline 96 % of control | [6] 93 % of control | dose: 400.0 mg/kg/injection, schedule: Q01DX001 (ip), vehicle: saline 96 % of control

COc1ccc([N+](=O)[O-])cc1NC(=O)N(Cc1ccccc1)c1ccccc1
inactive: dose: 50.0 mg/kg/injection, schedule: Q01DX009 (ip), vehicle: Klucel (hydroxypropylcellulose) (HPC) 96 % of control | [12] 93 % of control | [13] 96 % of control

C(CC1CCCCC1)=C(CCC1CCCCC1)CCC1CCCCC1
inactive: [1] 103 % of control | [2] 105 % of control | [4] 100 % of control

N#CCCC1CCCCC1=O (stereo unspecified)
inactive: dose: 75.0 mg/kg/injection, schedule: Q01DX001 (ip), vehicle: other 97 % of control | [7] 94 % of control | [1] 98 % of control | dose: 150.0 mg/kg/injection, schedule: Q01DX001 (ip), vehicle: other 100 % of control | [8] 96 % of control | [2] 96 % of control | dose: 300.0 mg/kg/injection, schedule: Q01DX001 (ip), vehicle: other 100 % of control | [4] 102 % of control

O=NN1C(=O)N(CCCl)C(=O)C1(c1ccccc1)c1ccccc1
inactive: [9] 96 % of control | [10] 97 % of control | [11] 102 % of control

C=CCCCCCCCCC(=O)N(CCOC)CCOC
inactive: [14] 96 % of control | [15] 100 % of control | [7] 100 % of control and 91 % of control

COC(=O)C1=CNC=C(C(=O)OC)C1c1ccc(OC)cc1
inactive: [1] 95 % of control | [2] 96 % of control | [4] 95 % of control
